Assay results reported in patent US20200163334A1, “INSECT REPELLENT” (FMC Corporation, priority 2016, published 2020).

Columns and labels:
[1] = test system: house flies (Musca domesticae); conditions: U.S. Pat. No. 6,958,146, 7,867,479 and 8,092,790; cited from earlier work
[2] = test system: Red imported fire ant (Solenopsis invicta); experiment: Fire ant repellency, baited plates near mounds (Example 6); type: in vivo; conditions: separate trial; about 100 mg per plate, within 4 feet of mounds
From the text: Formulation A was poured into a plastic spray bottle and was sprayed onto 20, eight inch paper plates, one squeeze of the pump trigger per plate. […] Ten treated plates were placed randomly on the ground on a farm in Sparks, Ga., USA and ten control (untreated) plates were placed on the ground about 3 feet from the treated plates. Ten treated plates were placed about 4 feet from active Red imported fire ant mounds and ten control plates were placed near the same mounds no closer than 3 feet from the treated plates. Each plate received approximately 15 mL of an aqueous 25% honey solution.
Fifty percent of the control plates had active fire ant feeding within 15 minutes and 100% of the control plates had active fire ant feeding within 30 minutes.

[3] = test system: insects; conditions: Table 1 of U.S. Pat. No. 6,958,146, 7,867,479 and 8,092,790; cited from earlier work

COC(=O)c1ccccc1N [methyl anthranilate]
house fly response [1]: repelled
deterrence of fire ant feeding [2]: did not deter fire ants from feeding
insects on sticky traps [3]: quickly became covered with hundreds of insects
